Key:
C57BL/6 wild type mice = assay: Tissue apoptosis (TUNEL) in irradiated hindlimb muscle and bone marrow; assay type: in vivo, mouse; conditions: morpholino 48 hours before 25 Gy, 24 hours post-radiation
Method: FIG. 17. Therapeutic suppression of CD47 prevents radiation-induced apoptosis in muscle and bone marrow. The presence of apoptosis was detected by the TUNEL method as brown nuclear staining. Non-irradiated control hindlimbs (upper panels) and hindlimbs irradiated for a total of 25 Gy all from age and sex matched C57BL/6 wild type mice were prepared for paraffin-embedded tissue sections 24 hours post-radiation and were examined for the presence of apoptotic nuclei. Mice hindlimbs injected with the CD47 morpholino (bottom panels) 48 hours prior to radiation were also prepared in the same manner 24 hours post-radiation. Apoptosis is inferred by intranuclear staining of muscle and bone marrow cells. Images were acquired using a 20× objective.
Tissue apoptosis: The ApopTag in situ detection kit (Chemicon, Millipore, Mass.) was employed following the manufacturer's recommendations In brief, sections undergo deparaffinization, rehydration and washing, followed by treatment with 20 μg/ml of proteinase K for 15 minutes at room temperature and repeat washing. Endogenous peroxidase activity was quenched with 3% H2O2 in PBS for 5 minutes. The 3′-hydroxy DNA strand breaks were enzymatically labeled with digoxygenin nucleotide via TdT and incubated for 1 hour at 37° C., and the reaction terminated with a stop buffer. […]

C57BL/6 mice = assay: Laser Doppler hind limb blood flow after NO challenge, 8 weeks post-radiation; assay type: in vivo, mouse; conditions: intramuscular 10 μM 48 hours before 25 Gy, 8 weeks post-injury
Method: FIG. 18. Targeting CD47 Protects Composite Tissue From Radiation-Induced Vascular Damage. Age matched male C57BL/6 mice received 25 Gy to both hind limbs. Forty-eight hours prior to irradiation the right hind limb was treated by direct intra-muscular injection with the CD47 morpholino (750 μl at 10 μM concentration). The opposite (control) limb received nothing. Eight weeks post-radiation hind limb blood flow changes to a nitric oxide (NO) challenge (DEA/NO 100 nmol/g body weight via rectal instillation) was assessed via Laser Doppler imaging (FIG. 18A). In other experiments, the opposite (control) limb received injection of either missense oligonucleotide or sterile PBS with similar results (not shown). Laser Doppler was performed under 1.5% isoflurane inhalation anesthesia with animal core temperature held constant at 36.5° C. […]
Laser Doppler analysis: Hind limb flow was measured using laser Doppler imaging (MoorLD1-2λ, Moor Instruments, Devon, England). […] Core temperature was monitored by rectal probe and was further controlled with a heat lamp. […] After equilibration to the experimental set-up baseline, hind limb blood flow was measured. […] Results are expressed as the change percent control from baseline of the ROI.
Laser Doppler Analysis: Hind limb blood flow was measured using laser Doppler imaging as described above. […]

## CGTCACAGGCAGGACCCACTGCCCA (all phosphorodiamidate morpholino (PMO)) [CD47 morpholino, CD47 targeting morpholino oligonucleotide]
C57BL/6 wild type mice
  apoptosis (TUNEL) in bone marrow: tissue protection extended to the bone marrow compartment
  apoptosis (TUNEL) in skeletal muscle: minimum cell death (apoptosis)
C57BL/6 mice
  vascular perfusion in response to DEA/NO challenge (laser Doppler): enhanced vascular perfusion

Source: patent US8951527B2, “Radioprotectants targeting thrombospondin-1 and CD47” (The United States of America, as represented by the …, priority 2008, dated 2015)
